Values quoted from earlier work as cited in patent US20110008412A1, “Oral Formulations for 5-HT-Receptor Agonists, Uses and Methods of Treatment Employing The Same” (CIPLA LIMITED, priority 2003, published 2011).

- half-life (after subcutaneous and oral application): about 2 hours
- bioavailability (injected subcutaneously): 96%
SMILES: CNS(=O)(=O)Cc1ccc2[nH]cc(CCN(C)C)c2c1 [sumatriptan, 3-[2-(dimethylamino)ethyl]-N-methyl-1H-indole-5-methanesulfonamide]
